Measurements reported in patent US20220144815A1, “1,3,4-OXADIAZOLES AND THEIR DERIVATIVES AS NEW ANTIFUNGAL AGENTS” (Bayer Aktiengesellschaft, priority 2018, published 2022).

Tested on: not listed separately
Test: Log P by HPLC on reversed phase columns, method [a] (EEC directive 79/831 Annex V.A8)
Assay type: physicochemical
Conditions: reversed phase HPLC column; Method A: LC-UV, acidic range, 0.1% formic acid in water and acetonitrile; read-out: Log P
Method in brief: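 Log P calibrated with C3–C16 straight-chain alkan-2-ones of known Log P, interpolating linearly between retention times. Method per EEC 79/831 Annex V.A8: reversed-phase LC-UV in the acidic range, water/0.1% formic acid and acetonitrile gradient from 10% to 95% acetonitrile.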

Row | SMILES | chromatographic logP
1 | CCc1noc(-c2ccc(C(=O)NNC(=O)C(F)(F)F)cc2)n1 [IIa.14, 4-(3-ethyl-1,2,4-oxadiazol-5-yl)-N′-(trifluoroacetyl)benzohydrazide] | 1.93
2 | O=C(NNC(=O)C(F)F)c1cnc(NC2(c3ccccc3)CCC2)nc1 [N′-(difluoroacetyl)-2-[(1-phenylcyclobutyl)amino]pyrimidine-5-carbohydrazide] | 1.99
3 | CCOC(=O)c1cnc(NC2(c3ccccc3)CCC2)nc1 [ethyl 2-[(1-phenylcyclobutyl)amino]pyrimidine-5-carboxylate] | 3.53
4 | CCc1noc(-c2ccc(C(=O)NNC(=O)OC(C)(C)C)cc2)n1 [tert-butyl 2-[4-(3-ethyl-1,2,4-oxadiazol-5-yl)benzoyl]hydrazinecarboxylate] | 1.23

Same assay, conditions: reversed phase HPLC column; method [a], HPLC on reversed phase columns; read-out: logP

Row | SMILES | chromatographic logP
5 | FC(F)Oc1ccc(C2(Nc3ncc(-c4nnc(C(F)F)o4)cn3)CC2)cc1 [I.247, N-{1-[4-(difluoromethoxy)phenyl]cyclopropyl}-5-[5-(difluoromethyl)-1,3,4-oxadiazol-2-yl]pyrimidin-2-amine] | 2.91
6 | FC(F)Oc1ccccc1C1(Nc2ncc(-c3nnc(C(F)F)o3)cn2)CC1 [I.248, N-{1-[2-(difluoromethoxy)phenyl]cyclopropyl}-5-[5-(difluoromethyl)-1,3,4-oxadiazol-2-yl]pyrimidin-2-amine] | 3.21
7 | FC(F)c1nnc(-c2cnc(NC3(c4cccc(C(F)(F)F)c4)CC3)nc2)o1 [I.249, 5-[5-(difluoromethyl)-1,3,4-oxadiazol-2-yl]-N-{1-[3-(trifluoromethyl)phenyl]cyclopropyl}pyrimidin-2-amine] | 3.24
8 | FC(F)c1nnc(-c2cnc(NC3(c4ccc(C(F)(F)F)cc4)CC3)nc2)o1 [I.250, 5-[5-(difluoromethyl)-1,3,4-oxadiazol-2-yl]-N-{1-[4-(trifluoromethyl)phenyl]cyclopropyl}pyrimidin-2-amine] | 3.25
9 | FC(F)c1nnc(-c2cnc(NC3(c4cc(Cl)ccc4Cl)CC3)nc2)o1 [I.251, N-[1-(2,5-dichlorophenyl)cyclopropyl]-5-[5-(difluoromethyl)-1,3,4-oxadiazol-2-yl]pyrimidin-2-amine] | 3.84
10 | FC(F)c1nnc(-c2cnc(NC3(c4ccc(Cl)c(Cl)c4)CC3)nc2)o1 [I.252, N-[1-(3,4-dichlorophenyl)cyclopropyl]-5-[5-(difluoromethyl)-1,3,4-oxadiazol-2-yl]pyrimidin-2-amine] | 3.43
11 | FC(F)c1nnc(-c2cnc(NC3(c4cccc(Cl)c4Cl)CC3)nc2)o1 [I.253, N-[1-(2,3-dichlorophenyl)cyclopropyl]-5-[5-(difluoromethyl)-1,3,4-oxadiazol-2-yl]pyrimidin-2-amine] | 3.74
12 | FC(F)c1nnc(-c2cnc(NC3(c4cc(Cl)cc(Cl)c4)CC3)nc2)o1 [I.254, N-[1-(3,5-dichlorophenyl)cyclopropyl]-5-[5-(difluoromethyl)-1,3,4-oxadiazol-2-yl]pyrimidin-2-amine] | 3.63
13 | FC(F)c1nnc(-c2cnc(NC3(c4ccc(Cl)cc4Cl)CC3)nc2)o1 [I.255, N-[1-(2,4-dichlorophenyl)cyclopropyl]-5-[5-(difluoromethyl)-1,3,4-oxadiazol-2-yl]pyrimidin-2-amine] | 4.05
14 | CC(C)(Nc1ncc(-c2nnc(C(F)F)o2)cn1)c1cccc(C(F)(F)F)c1 [I.256, 5-[5-(difluoromethyl)-1,3,4-oxadiazol-2-yl]-N-{2-[3-(trifluoromethyl)phenyl]propan-2-yl}pyrimidin-2-amine] | 3.63
15 | FC(F)c1nnc(-c2cnc(NC3(c4cccc(Cl)c4)CCCCC3)nc2)o1 [I.258, N-[1-(3-chlorophenyl)cyclohexyl]-5-[5-(difluoromethyl)-1,3,4-oxadiazol-2-yl]pyrimidin-2-amine] | 4.35
16 | O=[N+]([O-])c1cc(C2(Nc3ncc(-c4nnc(C(F)F)o4)cn3)CC2)ccc1Cl [I.259, N-[1-(4-chloro-3-nitrophenyl)cyclopropyl]-5-[5-(difluoromethyl)-1,3,4-oxadiazol-2-yl]pyrimidin-2-amine] | 2.96
17 | Fc1ccccc1C1(N(CC(F)F)c2ncc(-c3nnc(C(F)F)o3)cn2)CC1 [I.261, N-(2,2-difluoroethyl)-5-[5-(difluoromethyl)-1,3,4-oxadiazol-2-yl]-N-[1-(2-fluorophenyl)cyclopropyl]pyrimidin-2-amine] | 4.4
18 | FC(F)c1nnc(-c2cnc(NC3(c4cccc(OC(F)(F)F)c4)CC3)nc2)o1 [I.262, 5-[5-(difluoromethyl)-1,3,4-oxadiazol-2-yl]-N-{1-[3-(trifluoromethoxy)phenyl]cyclopropyl}pyrimidin-2-amine] | 3.37
19 | Fc1cc(C(F)(F)F)ccc1C1(Nc2ncc(-c3nnc(C(F)F)o3)cn2)CC1 [I.263, 5-[5-(difluoromethyl)-1,3,4-oxadiazol-2-yl]-N-{1-[2-fluoro-4-(trifluoromethyl)phenyl]cyclopropyl}pyrimidin-2-amine] | 3.59
20 | FC(F)c1nnc(-c2cnc(NC3(c4cccc(Oc5ccccc5)c4)CC3)nc2)o1 [I.265, 5-[5-(difluoromethyl)-1,3,4-oxadiazol-2-yl]-N-[1-(3-phenoxyphenyl)cyclopropyl]pyrimidin-2-amine] | 3.62
21 | FC(F)c1nnc(-c2cnc(NC3(c4ccc(C(F)(F)F)cc4)CCCC3)nc2)o1 [I.266, 5-[5-(difluoromethyl)-1,3,4-oxadiazol-2-yl]-N-{1-[4-(trifluoromethyl)phenyl]cyclopentyl}pyrimidin-2-amine] | 4.16
22 | O=C(N(c1ncc(-c2nnc(C(F)F)o2)cn1)C1(c2ccccc2F)CC1)C(F)(F)F [I.267, N-{5-[5-(difluoromethyl)-1,3,4-oxadiazol-2-yl]pyrimidin-2-yl}-2,2,2-trifluoro-N-[1-(2-fluorophenyl)cyclopropyl]acetamide] | 3.91
23 | FC(F)c1nnc(-c2cnc(NC3(c4ccccc4Br)CCCCC3)nc2)o1 [I.268, N-[1-(2-bromophenyl)cyclohexyl]-5-[5-(difluoromethyl)-1,3,4-oxadiazol-2-yl]pyrimidin-2-amine] | 4.38

Tested on: Colletotrichum lindemuthianum
Test: Example B: in vitro cell test, spore germination and mycelium growth in liquid culture
Assay type: cell-based
Conditions: 144 h, 20 ppm of tested compound, 6 days incubation, read-out: efficacy (inhibition of fungal growth)
Protocol: • Solvent: dimethyl sulfoxide Culture medium: 14.6 g anhydrous D-glucose (VWR), • 7.1 g mycological peptone (Oxoid), • 1.4 g granulated yeast extract (Merck), QSP 1 liter Inoculum: spore suspension The tested compounds were solubilized in dimethyl sulfoxide and the solution used to prepare the required range of concentrations. The final concentration of dimethyl sulfoxide used in the assay was ≤1%. A spore suspension of Colletotrichum lindemuthianum was prepared and diluted to the desired spore density. The compounds were evaluated for their ability to inhibit spore germination and mycelium growth in liquid culture assay. The compounds were added in the desired concentration to the culture medium with spores. After 6 days incubation, fungi-toxicity of compounds was determined by spectrometric measurement of mycelium growth. Inhibition of fungal growth was determined by comparing the absorbance values in wells containing the tested compounds with the absorbance in control wells without tested compounds.

Row | SMILES | inhibition of growth at 20 µg/mL [%]
24 | Fc1ccccc1C1(Nc2ccc(-c3nnc(C(F)F)o3)cc2)CC1 [I.025, 4-[5-(difluoromethyl)-1,3,4-oxadiazol-2-yl]-N-[1-(2-fluorophenyl)cyclopropyl]aniline] | 80 to 89
25 | FC(F)c1nnc(-c2cnc(Cl)nc2)o1 [I.061, 2-chloro-5-[5-(difluoromethyl)-1,3,4-oxadiazol-2-yl]pyrimidine] | 90 to 100
26 | C#CCNc1ncc(-c2nnc(C(F)F)o2)cn1 [I.063, 5-[5-(difluoromethyl)-1,3,4-oxadiazol-2-yl]-N-(prop-2-yn-1-yl)pyrimidin-2-amine] | 90 to 100
27 | FC(F)c1nnc(-c2cnc(NCC3CC3)nc2)o1 [I.067, N-(cyclopropylmethyl)-5-[5-(difluoromethyl)-1,3,4-oxadiazol-2-yl]pyrimidin-2-amine] | 80 to 89
28 | COc1ccc(-c2ncc(-c3nnc(C(F)F)o3)cn2)cc1 [I.089, 5-[5-(difluoromethyl)-1,3,4-oxadiazol-2-yl]-2-(4-methoxyphenyl)pyrimidine] | 90 to 100
